Test results published in patent US20030050242A1, “Protein polymerization inhibitors and methods of use” (priority 1999, published 2003).
“And” between values parts separate entries of the source, which are not always exact repeats. Equal values may be shown once. Peptide text beside a SMILES is read from it.

Legend:
[1] = molecular target: major capsid protein (p24) of HIV-1 (HIV-1) (UniProt P04591)
HIV-2 = test: viral infection assay in H9 cells, reverse transcriptase (RT) activity in supernatant; format: cell-based; settings: summary of the experiments in H9 cells
Experimental: (§1) Next, the ability of peptide agents to inhibit viral infection was evaluated. Accordingly, the peptide agents listed in Table 1 were used in several viral (e.g., HIV-1, HIV-2, and SIV) infection assays. […] Once inhibitory tripeptides were identified, more specific assays were conducted to determine the effect of varying concentrations of the selected tripeptides and combination treatments (e.g., the use of more than one modified tripeptide in combination).
(§2) To monitor the replication of virus, reverse transcriptase (RT) activity in the supernatants was assayed using a commercially available Lenti-RT activity kit. (Cavidi Tech, Uppsala, Sweden). The amount of RT was determined with the aid of a regression line of standards. […] Syncytium formation was also monitored by microscopic examination.
(§3) (Cavidi Tech). The amount of RT was determined with the aid of a regression line of standards.

SIV = test: as above; format: cell-based; settings: summary of the experiments in H9 cells
Experimental: as §1, §2, §3

[2] = molecular target: T1, recombinant p24 (viral capsid protein) (Human immunodeficiency virus type 1 group M subtype B, UniProt P04591); test: dialysis-based binding assay with 14C-GPG-NH2; set-up: species or system HIV-1
T1 construct: AIDS program, NCIB (gift)
Experimental: (§4) To determine whether the peptide agents listed in Table 1 bound to the viral capsid protein p24, an in vitro binding assay was performed. As described previously, a dialysis-based binding assay was conducted using a dialysis membrane with a pore size of less than 10 kD. (Slide-A-Lyzer, Pierce). Fifty microliters of a 10 μM stock of the recombinant proteins p24, gp120 (gifts from the AIDS program, NCIB) and BSA (Sigma) were introduced into separate dialysis membranes and the proteins were dialyzed at 4° C. for 2 days against a 500 ml solution composed of 150 mM NaCl and 50 mM Tris-HCl, pH 7.4 buffer, and 27.5 μM of ^14C-GPG-NH2 (Amersham Ltd. UK). Subsequently, ten or five microliter aliquots of the dialyzed p24, gp 120, and BSA were removed and mixed with 3 ml of ReadySafe (Beckman) in a scintillation vial. The C^14 was then detected by scintillation counting.
(§5) In Table 2, the results from a representative dialysis-based binding assay are provided. […] The amount of radioactive GPG-NH2 associated with p24 was 7.5 times greater than that present in the buffer.

HIV-1 = settings: summary of Experiments 1-6
Experimental: as §1

HIV-1 SF-2 virus = test: electron microscopy of HIV-1 particles from infected HUT78 cells; format: cell-based; settings: 1 μM or 10 μM added 3, 5 or 7 days post infection; cells fixed day 14
Experimental: Evidence that peptide agents inhibit or prevent viral capsid protein polymerization and, thus, proper nucleocapsid assembly was obtained by performing electron microscopy on HIV-1 particles that were contacted with a modified small peptide. In this set of experiments, HUT78 cells were infected with HIV-1 SF-2 virus at 300TCID50 for 1 hr at 37° C. Subsequently, the infected cells were washed and pelleted 3 times. […] GPG-NH2 was then added into the cell cultures 3, 5 or 7 days post infection at concentration of 1 μm or 10 μM. A control sample was administered 0.5 μM Ritonavir (a protease inhibitor). The cells were cultured until day 14, at which point, the cells were fixed in 2.5% glutaraldehyde by conventional means. The fixed cells were then post-fixed in 1% OSO4 and were dehydrated, embedded with epoxy resins, and the blocks were allowed to polymerize. Epon sections of virus infected cells were made approximately 60-80 nm thin in order to accommodate the width of the nucleocapsid. The sections were mounted to grids stained with 1.0% uranyl acetate and were analyzed in a Zeiss CEM 902 microscope at an accelerating voltage of 80 kV. The microscope was equipped with a spectrometer to improve image quality and a liquid nitrogen cooling trap was used to reduce beam damage. The grids having sections of control and GPG-NH2 incubated cells were examined in several blind studies.
(See FIG. 1). […]

recombinant gp120 = molecular target: T2, recombinant gp120 (Human immunodeficiency virus type 1 group M subtype B, UniProt P03375); test: dialysis-based binding assay with 14C-GPG-NH2
T2 construct: recombinant proteins p24, gp120 (gifts from the AIDS program, NCIB); AIDS program, NCIB (gift)
Experimental: To determine whether the peptide agents listed in Table 1 bound to the viral capsid protein p24, an in vitro binding assay was performed. As described previously, a dialysis-based binding assay was conducted using a dialysis membrane with a pore size of less than 10 kD. (Slide-A-Lyzer, Pierce). […] Subsequently, ten or five microliter aliquots of the dialyzed p24, gp 120, and BSA were removed and mixed with 3 ml of ReadySafe (Beckman) in a scintillation vial. The C^14 was then detected by scintillation counting.

BSA = molecular target: T3, BSA (Bos taurus, UniProt P02769); test: dialysis-based binding assay with 14C-GPG-NH2
T3 construct: purchased Sigma
Experimental: as §4, §5

[3] = molecular target: viral capsid protein (p24) of HIV-2 (HIV-2)
[4] = molecular target: major capsid protein (p24) of HIV-1 (HIV-1) (UniProt P04591); remark: listed apart in the source
[5] = molecular target: viral capsid protein (p24) of SIV (SIV)
[6] = molecular target: major capsid protein (p24) of HIV-1 (HIV-1) (UniProt P04591); remark: listed apart in the source
[7] = 27.5 μM 14C-GPG-NH2, dialysis 4° C. 2 days, dialysis buffer 1.816
[8] = radioactivity relative to dialysis buffer

In the case of “GPG-NH2 + GKG-NH2 + CQG-NH2 (pool or library)”, the p24 in the supernatants of infected H9 cells, Day 14 HIV-1, reduction (%) [1] is reported as 100%.
In the case of `NCC(=O)N1CCC[C@H]1C(=O)NCC(N)=O` [GPG-NH2, glycyl-prolyl-glycine amide] (H-Gly-Pro-Gly-NH2), the “effect on HIV-2 infection, in words” value (HIV-2) is reported as “inhibit or prevent HIV-2 and SIV infection”, the “effect on SIV infection, in words” value (SIV) is reported as “inhibit or prevent HIV-2 and SIV infection” and the “μCi/ml, sample p24” value [2, 7] is reported as 13.712 μCi/ml. The “times buffer, sample p24” value [2, 8] was 7.5 times buffer and 7.551 times buffer, the “effect on HIV-1 infection, in words” value (HIV-1) was “inhibited and/or prevented HIV-1 infection” and the “capsid/nucleocapsid morphology of HIV-1 particles” value (HIV-1 SF-2 virus) was “discernable capsid structures that are distinct from the Ritonavir-treated particles”. For the same compound, the “μCi/ml, sample gp120” value (recombinant gp120; [7]) was 1.745 μCi/ml, the “radioactive GPG-NH2 associated with gp120 over the amount in the dialysis buffer” value (recombinant gp120; in words) was “no appreciable amount” and the “times buffer, sample gp120” value (recombinant gp120; [8]) was 0.961 times buffer. For the same compound, the “μCi/ml, sample BSA” value (BSA; [7]) was 1.674 μCi/ml, the “radioactive GPG-NH2 associated with BSA over the amount in the dialysis buffer” value (BSA; in words) was “no appreciable amount” and the “times buffer, sample BSA” value (BSA; [8]) was 0.922 times buffer.
Gly-Pro-Gly-NH2 (peptide) showed a reverse transcriptase (RT) activity in the supernatants, Day 10 RT (OD) [3] of 0.145 OD, a reverse transcriptase (RT) activity in the supernatants, Day 10 RT (OD) [4] of 0.074 OD and a reverse transcriptase (RT) activity in the supernatants, Day 10 RT (OD) [5] of 0.103 OD. The p24 production of infected HUT78 cells (HIV-1 p24 ELISA), Day 7 HIV-1, reduction (%), peptide at 100 µM [6] was 97%.
